Data reported in patent publication US20260242391A1 (priority 2023, published 2026).

Experiments:
HL-60 = HL-60 differentiation potency; format: cell-based; conditions: Homo sapiens
in vitro = conditions: human

C[C@H]1[C@@H](Oc2ccc(O[C@H]3C[C@@H](C(=O)O)C3)cc2)O[C@@H]2O[C@@]3(C)CC[C@H]4[C@H](C)CC[C@@H]1[C@@]24OO3 [Compound 182, (1R,3s)-3-(4-(((3R,5aS,6R,8aS, 9R,10S,12R, 12aR)-3,6,9-trimethyldeca-hydro-12H-3,12-epoxy[1,2]dioxepino[4,3-i]isochromen-10-yl)oxy)phenoxy) cyclobutane-1-carboxylic acid]
EC50 (HL-60): 24.1 nM
IC50 (in vitro; HL-60 cells): 1000 nM

CC(O[C@H]1O[C@@H]2O[C@@]3(C)CC[C@H]4[C@H](C)CC[C@@H]([C@H]1C)[C@@]24OO3)c1ccc(C(=O)O)cc1Cl (stereo partly drawn) [Compound 179, 3-chloro-4-(1-(((3R,5aS,6R,8aS, 9R,10S,12R, 12aR)-3,6,9-trimethyldeca-hydro-12H-3,12-epoxy[1,2]dioxepino[4,3-i]isochromen-10-yl)oxy)ethyl) benzoic acid]
EC50 (HL-60): 65.8 nM
IC50 (in vitro): 1500 nM

CNC(=O)N1CCN([C@@H]2O[C@@H]3O[C@@]4(C)CC[C@H]5[C@H](C)CC[C@@H]([C@H]2C)[C@@]35OO4)CC1 [Compound 67, N-methyl-4-((3R,5aS,6R,8aS, 9R,10R,12R, 12aR)-3,6,9-trimethyldeca-hydro-12H-3,12-epoxy[1,2]dioxepino[4,3-i]isochromen-10-yl)piperazine-1-carboxamide]
EC50 (HL-60): > 20000 nM
IC50 (in vitro): > 20000 nM

C[C@H]1[C@@H](Oc2ccc(C(C)(C)C(=O)O)cc2)O[C@@H]2O[C@@]3(C)CC[C@H]4[C@H](C)CC[C@@H]1[C@@]24OO3 [Compound 126, 2-methyl-2-(4-(((3R,5aS,6R,8aS, 9R,10S,12R, 12aR)-3,6,9-trimethyldeca-hydro-12H-3,12-epoxy[1,2]dioxepino[4,3-i]isochromen-10-yl)oxy)phenyl) propanoic acid]
EC50 (HL-60): 15.6 nM
IC50 (in vitro): 5500 nM

C[C@H]1[C@@H](OC(=O)Cn2ccc(C(F)(F)F)n2)O[C@@H]2O[C@@]3(C)CC[C@H]4[C@H](C)CC[C@@H]1[C@@]24OO3 [Compound 145, (3R,5aS,6R,8aS, 9R,10R,12R, 12aR)-3,6,9-trimethyldeca-hydro-12H-3,12-epoxy[1,2] dioxepino[4,3-i] isochromen-10-yl 2-(3-(trifluoro-methyl)-1H-pyrazol-1-yl)acetate]
EC50 (HL-60): 73.2 nM
IC50 (in vitro): 110 nM

C[C@H]1[C@@H](Oc2ccc(-c3ccc(C(=O)O)cc3)cc2)O[C@@H]2O[C@@]3(C)CC[C@H]4[C@H](C)CC[C@@H]1[C@@]24OO3 [Compound 107, 4′-(((3R,5aS,6R,8aS, 9R,10S,12R, 12aR)-3,6,9-trimethyldeca-hydro-12H-3,12-epoxy[1,2]dioxepino[4,3-i]isochromen-10-yl)oxy)-[1,1′-biphenyl]-4-carboxylic acid]
EC50 (HL-60): 23.5 nM
IC50 (in vitro): 40 nM

C[C@H]1[C@@H](Oc2ccc(CC(=O)O)cc2F)O[C@@H]2O[C@@]3(C)CC[C@H]4[C@H](C)CC[C@@H]1[C@@]24OO3 [Compound 9, 2-(3-fluoro-4-(((3R,5aS,6R, 8aS,9R,10S,12R, 12aR)-3,6,9-trimethyldeca-hydro-12H-3,12-epoxy[1,2]dioxepino[4,3-i]isochromen-10-yl)oxy)phenyl) acetic acid]
EC50 (HL-60): 59.3 nM
IC50 (in vitro): > 20000 nM

C[C@H]1[C@@H](OCC2CCC(F)(F)CC2)O[C@@H]2O[C@@]3(C)CC[C@H]4[C@H](C)CC[C@@H]1[C@@]24OO3 [Compound 106, (3R,5aS,6R,8aS, 9R,10S,12R, 12aR)-10-((4,4-difluorocyclo-hexyl)methoxy)-3,6,9-trimethyldeca-hydro-12H-3,12-epoxy[1,2] dioxepino[4,3-i] isochromene]
EC50 (HL-60): 20.4 nM
IC50 (in vitro): 100 nM

C[C@H]1[C@@H](OC[C@H]2CC[C@@H](C(=O)O)N2C)O[C@@H]2O[C@@]3(C)CC[C@H]4[C@H](C)CC[C@@H]1[C@@]24OO3 [Compound 144, (2S,5R)-1-methyl-5-((((3R,5aS,6R,8aS, 9R,10S,12R, 12aR)-3,6,9-trimethyldeca-hydro-12H-3,12-epoxy[1,2]dioxepino[4,3-i]isochromen-10-yl)oxy)methyl) pyrrolidine-2-carboxylic acid]
EC50 (HL-60): 3350 nM
IC50 (in vitro): 14400 nM

C[C@H]1[C@@H](OC2C3CC(C(=O)O)CC32)O[C@@H]2O[C@@]3(C)CC[C@H]4[C@H](C)CC[C@@H]1[C@@]24OO3 (stereo partly drawn) [Compound 158, 6-(((3R,5aS,6R,8aS, 9R,10S,12R, 12aR)-3,6,9-trimethyldeca-hydro-12H-3,12-epoxy[1,2]dioxepino[4,3-i]isochromen-10-yl)oxy)bicyclo [3.1.0]hexane-3-carboxylic acid]
EC50 (HL-60): 4250 nM
IC50 (in vitro): > 20000 nM

COc1cc(CO[C@H]2O[C@@H]3O[C@@]4(C)CC[C@H]5[C@H](C)CC[C@@H]([C@H]2C)[C@@]35OO4)ccc1C(=O)O [Compound 35, 2-methoxy-4-((((3R,5aS,6R, 8aS,9R,10S,12R, 12aR)-3,6,9-trimethyldeca-hydro-12H-3,12-epoxy[1,2]dioxepino[4,3-i]isochromen-10-yl)oxy)methyl) benzoic acid]
EC50 (HL-60): 481 nM
IC50 (in vitro): > 20000 nM

C[C@H]1[C@@H](OCC(C(=O)O)c2ccccc2)O[C@@H]2O[C@@]3(C)CC[C@H]4[C@H](C)CC[C@@H]1[C@@]24OO3 (stereo partly drawn) [Compound 172, 2-phenyl-3-(((3R,5aS,6R,8aS, 9R,10S,12R, 12aR)-3,6,9-trimethyldeca-hydro-12H-3,12-epoxy[1,2]dioxepino[4,3-i]isochromen-10-yl)oxy) propanic acid]
EC50 (HL-60): 273 nM
IC50 (in vitro): > 20000 nM

C[C@H]1[C@H](OCC2CCC(C(=O)O)CC2)O[C@@H]2O[C@@]3(C)CC[C@H]4[C@H](C)CC[C@@H]1[C@@]24OO3 (stereo partly drawn) [Compound 42, (1S,4s)-4-((((3R,5aS,6R, 8aS,9R,10R,12R, 12aR)-3,6,9-trimethyldeca-hydro-12H-3,12-epoxy[1,2]dioxepino[4,3-i]isochromen-10-yl)oxy)methyl) cyclohexane-1-carboxylic acid]
EC50 (HL-60): 782 nM
IC50 (in vitro): > 20000 nM

C[C@H]1[C@@H](OCc2ccc(C(=O)O)o2)O[C@@H]2O[C@@]3(C)CC[C@H]4[C@H](C)CC[C@@H]1[C@@]24OO3 [Compound 32, 5-((((3R,5aS,6R, 8aS,9R,10S,12R, 12aR)-3,6,9-trimethyldeca-hydro-12H-3,12-epoxy[1,2]dioxepino[4,3-i]isochromen-10-yl)oxy)methyl) furan-2-carboxylic acid]
EC50 (HL-60): 333 nM
IC50 (in vitro): > 20000 nM

C[C@H]1[C@@H](Oc2ccc(CC(=O)OC(C)(C)C)cc2)O[C@@H]2O[C@@]3(C)CC[C@H]4[C@H](C)CC[C@@H]1[C@@]24OO3 [Compound 132, tert-butyl 2-(4-(((3R,5aS,6R,8aS, 9R,10S,12R, 12aR)-3,6,9-trimethyldeca-hydro-12H-3,12-epoxy[1,2]dioxepino[4,3-i]isochromen-10-yl)oxy)phenyl) acetate]
EC50 (HL-60): 12.4 nM
IC50 (in vitro): 10 nM

C[C@H]1[C@@H](Oc2ccc(CC(=O)O)cc2Cl)O[C@@H]2O[C@@]3(C)CC[C@H]4[C@H](C)CC[C@@H]1[C@@]24OO3 [Compound 16, 2-(3-chloro-4-(((3R,5aS,6R,8aS, 9R,10S,12R, 12aR)-3,6,9-trimethyldeca-hydro-12H-3,12-epoxy[1,2]dioxepino[4,3-i]isochromen-10-yl)oxy)phenyl) acetic acid]
EC50 (HL-60): 94.8 nM
IC50 (in vitro): > 10000 nM

C[C@H]1[C@@H](OCC(=O)N[C@H]2CC[C@@H](C(=O)O)C2)O[C@@H]2O[C@@]3(C)CC[C@H]4[C@H](C)CC[C@@H]1[C@@]24OO3 [Compound 152, (1R,3S)-3-(2-(((3R,5aS,6R, 8aS,9R,10S,12R, 12aR)-3,6,9-trimethyldeca-hydro-12H-3,12-epoxy[1,2]dioxepino[4,3-i]isochromen-10-yl)oxy)acetamido) cyclopentane-1-carboxylic acid]
EC50 (HL-60): 8480 nM
IC50 (in vitro): > 20000 nM

C[C@H]1[C@@H](OCC#Cc2ccc(C(=O)O)cc2F)O[C@@H]2O[C@@]3(C)CC[C@H]4[C@H](C)CC[C@@H]1[C@@]24OO3 [Compound 165, 3-fluoro-4-(3-(((3R,5aS,6R,8aS, 9R,10S,12R, 12aR)-3,6,9-trimethyldeca-hydro-12H-3,12-epoxy[1,2]dioxepino[4,3-i]isochromen-10-yl)oxy)prop-1-yn-1-yl) benzoic acid]
EC50 (HL-60): 79.5 nM
IC50 (in vitro): 300 nM

Cc1cc(CC(=O)O)ccc1O[C@H]1O[C@@H]2O[C@@]3(C)CC[C@H]4[C@H](C)CC[C@@H]([C@H]1C)[C@@]24OO3 [Compound 8, 2-(3-methyl-4-(((3R,5aS,6R,8aS, 9R,10S,12R, 12aR)-3,6,9-trimethyldeca-hydro-12H-3,12-epoxy[1,2]dioxepino[4,3-i]isochromen-10-yl)oxy)phenyl) acetic acid]
EC50 (HL-60): 57.7 nM
IC50 (in vitro): > 20000 nM

CC(C)C(C(=O)O)c1ccc(O[C@H]2O[C@@H]3O[C@@]4(C)CC[C@H]5[C@H](C)CC[C@@H]([C@H]2C)[C@@]35OO4)cc1 (stereo partly drawn) [Compound 146, 3-methyl-2-(4-(((3R,5aS,6R,8aS, 9R,10S,12R, 12aR)-3,6,9-trimethyldeca-hydro-12H-3,12-epoxy[1,2]dioxepino[4,3-i]isochromen-10-yl)oxy)phenyl) butanoic acid]
EC50 (HL-60): 59.6 nM
IC50 (in vitro): 800 nM

C[C@H]1[C@H](NCCS(C)(=O)=O)O[C@@H]2O[C@@]3(C)CC[C@H]4[C@H](C)CC[C@@H]1[C@@]24OO3 [Compound 99, (3R,5aS,6R,8aS, 9R,10R,12R, 12aR)-3,6,9-trimethyl-N-(2-(methylsulfonyl)ethyl)decahydro-12H-3,12-epoxy [1,2]dioxepino [4,3-i]isochromen-10-amine]
EC50 (HL-60): 660 nM
IC50 (in vitro): 743 nM

C[C@H]1[C@@H](OC(=O)CCC(O)c2ccc(Cl)cc2)O[C@@H]2O[C@@]3(C)CC[C@H]4[C@H](C)CC[C@@H]1[C@@]24OO3 (stereo partly drawn) [Compound 93, (3R,5aS,6R,8aS, 9R,10R,12R, 12aR)-3,6,9-trimethyldeca-hydro-12H-3,12-epoxy[1,2] dioxepino[4,3-i] isochromen-10-yl 4-(4-chlorophenyl)-4-hydroxybutanoate]
EC50 (HL-60): 78.6 nM
IC50 (in vitro): 87.7 nM

C[C@H]1[C@@H](Oc2ccc(CC(=O)NC(C)(C)C)cc2)O[C@@H]2O[C@@]3(C)CC[C@H]4[C@H](C)CC[C@@H]1[C@@]24OO3 [Compound 104, N-(tert-butyl)-2-(4-(((3R,5aS,6R,8aS, 9R,10S,12R, 12aR)-3,6,9-trimethyldeca-hydro-12H-3,12-epoxy[1,2]dioxepino[4,3-i]isochromen-10-yl)oxy)phenyl) acetamide]
EC50 (HL-60): 52.3 nM
IC50 (in vitro): 160 nM
